Data published in US9187472B2 (AbbVie Inc., priority 2012, dated 2015).

What was measured:
NAMPT = NAMPT (Homo sapiens, UniProt P43490); test: TR-FRET Binding Assay of NAMPT with PRPP; conditions: with 200 μM PRPP and 2.5 mM ATP; 2 nM NAMPT, 2 nM probe, 16 hours equilibration
Outline: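 Compounds were mixed with 2 nM His-tagged NAMPT, 2 nM probe, 1 nM terbium anti-His antibody, 200 μM PRPP and 2.5 mM ATP in assay buffer with 2% DMSO, then left 16 hours to permit possible enzymatic processing of compounds before time-resolved FRET was measured.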

PC3 cells = test: NAMPT Cell Proliferation Assay; format: cell-based; conditions: Homo sapiens, PC-3, 120 h, 5 days incubation, cell viability by Cell Titer Glo
Outline: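 Cell Titer Glo viability after 5-day exposure (37° C, 5% CO2); PC3, 500 cells/well, RPMI + 10% heat-inactivated FBS, overnight attachment before dosing. Dose range 10 μM to 1×10^−5 μM, 10-fold steps. IC50 = sigmoidal fit of % inhibition.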

[1] = target: NAMPT (human, recombinant, C-terminally His-tagged) (Homo sapiens, UniProt P43490); test: Time-Resolved Fluorescence Resonance Energy Transfer (TR-FRET) Binding Assay of NAMPT; conditions: without substrates; 6.8 nM NAMPT, 200 nM probe, 3 hours equilibration
Outline: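 Compounds, diluted in half-log steps, are mixed with enzyme (6.8 nM), fluorescent probe (200 nM) and Tb-anti-His antibody (1 nM) in pH 7.5 HEPES buffer containing 10 mM MgCl2 and 1 mM DTT. Plates equilibrate 3 h at room temperature; normalized FRET ratios are fitted by four-parameter logistic regression for IC50.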

Sequence of NAMPT (P43490 whole entry): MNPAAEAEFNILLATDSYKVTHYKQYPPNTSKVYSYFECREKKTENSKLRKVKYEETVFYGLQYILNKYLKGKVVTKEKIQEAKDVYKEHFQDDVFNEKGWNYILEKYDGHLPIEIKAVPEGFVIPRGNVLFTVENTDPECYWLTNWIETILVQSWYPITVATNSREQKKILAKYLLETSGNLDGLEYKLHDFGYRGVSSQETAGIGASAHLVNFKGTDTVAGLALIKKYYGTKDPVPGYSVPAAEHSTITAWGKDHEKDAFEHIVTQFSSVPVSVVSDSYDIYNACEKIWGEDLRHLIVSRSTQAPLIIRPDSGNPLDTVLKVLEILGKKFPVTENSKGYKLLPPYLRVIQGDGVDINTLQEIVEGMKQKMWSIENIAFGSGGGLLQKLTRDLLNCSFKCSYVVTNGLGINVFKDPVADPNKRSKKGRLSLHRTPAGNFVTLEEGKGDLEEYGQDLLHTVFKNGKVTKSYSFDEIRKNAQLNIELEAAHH
Sequence of NAMPT (human, recombinant, C-terminally His-tagged) (P43490 whole entry): as above

Structure (SMILES) | IC50 (NAMPT) [nM] | IC50 (PC3 cells) [nM] | IC50 [1] [nM]
CC(C)OC[C@H]1CN(c2ncc(C(=O)NCc3ccn4ccnc4c3)s2)C(=O)O1 [Example 256, N-(imidazo[1,2-a]pyridin-7-ylmethyl)-2-{(5R)-2-oxo-5-[(propan-2-yloxy)methyl]-1,3-oxazolidin-3-yl}-1,3-thiazole-5-carboxamide] | 0.266 | 9.84 | 126
COCC(=O)N1CCC(c2ccc(C(=O)NCc3ccn4ccnc4c3)s2)CC1 [Example 257, N-(imidazo[1,2-a]pyridin-7-ylmethyl)-5-[1-(methoxyacetyl)piperidin-4-yl]thiophene-2-carboxamide] | 0.344 | 15.2 | 101
CC(=O)N1CCC(c2ccc(C(=O)NCc3ccn4ccnc4c3)s2)CC1 [Example 258, 5-(1-acetylpiperidin-4-yl)-N-(imidazo[1,2-a]pyridin-7-ylmethyl)thiophene-2-carboxamide] | 0.558 | 32.5 | 113
CC(C)C(=O)N1CCC(c2ccc(C(=O)NCc3ccn4ccnc4c3)s2)CC1 [Example 259, N-(imidazo[1,2-a]pyridin-7-ylmethyl)-5-[1-(2-methylpropanoyl)piperidin-4-yl]thiophene-2-carboxamide] | 0.169 | 2.54 | 26.6
O=C(NCc1ccn2ccnc2c1)c1ccc(C2CCN(C(=O)C3CC3)CC2)s1 [Example 260, 5-[1-(cyclopropylcarbonyl)piperidin-4-yl]-N-(imidazo[1,2-a]pyridin-7-ylmethyl)thiophene-2-carboxamide] | 0.351 | 8.06 | 46.5
O=C(NCc1ccn2ccnc2c1)c1ccc(C2CCN(C(=O)C3CCOC3)CC2)s1 (stereo not drawn) [Example 261, N-(imidazo[1,2-a]pyridin-7-ylmethyl)-5-[1-(tetrahydrofuran-3-ylcarbonyl)piperidin-4-yl]thiophene-2-carboxamide] | 0.231 | 5.1 | 62.7
O=C(NCc1ccn2ccnc2c1)c1ccc(C2CCN(C(=O)CC3CCOCC3)CC2)s1 [Example 262, N-(imidazo[1,2-a]pyridin-7-ylmethyl)-5-[1-(tetrahydro-2H-pyran-4-ylacetyl)piperidin-4-yl]thiophene-2-carboxamide] | 0.221 | 1.87 | 3.67
CC(C)CC(=O)N1CCC(c2ccc(C(=O)NCc3ccn4ccnc4c3)s2)CC1 [Example 263, N-(imidazo[1,2-a]pyridin-7-ylmethyl)-5-[1-(3-methylbutanoyl)piperidin-4-yl]thiophene-2-carboxamide] | 0.247 | 2.43 | 48.6
O=C(NCc1ccn2ccnc2c1)c1ccc(C2CCN(C(=O)c3ccno3)CC2)s1 [Example 264, N-(imidazo[1,2-a]pyridin-7-ylmethyl)-5-[1-(1,2-oxazol-5-ylcarbonyl)piperidin-4-yl]thiophene-2-carboxamide] | 0.412 | 6.69 | 40.4
O=C(NCc1ccn2ccnc2c1)c1ccc(-c2cnn(CC3CCOCC3)c2)s1 [Example 265, N-(imidazo[1,2-a]pyridin-7-ylmethyl)-5-[1-(tetrahydro-2H-pyran-4-ylmethyl)-1H-pyrazol-4-yl]thiophene-2-carboxamide] | 0.266 | 1.59 | 33.1
O=C(NCc1ccn2ccnc2c1)c1ccc(N2CC(CO)OC2=O)s1 (stereo not drawn) [Example 266, 5-[5-(hydroxymethyl)-2-oxo-1,3-oxazolidin-3-yl]-N-(imidazo[1,2-a]pyridin-7-ylmethyl)thiophene-2-carboxamide] | 0.333 | 606 | 120
O=C(NCc1ccn2ccnc2c1)c1ccc(N2C[C@H](O)CC2=O)s1 [Example 267, 5-[(4R)-4-hydroxy-2-oxopyrrolidin-1-yl]-N-(imidazo[1,2-a]pyridin-7-ylmethyl)thiophene-2-carboxamide] | 0.291 | 665 | 54.3
